Data reported in ChEMBL document CHEMBL1201862, “PubChem BioAssay data set” (2004).
Active and inactive are the calls of the source.

What was measured:
Cannabinoid receptor 2 [1] = biological target: T1, Cannabinoid receptor 2 (Homo sapiens, UniProt P34972); assay: SAR analysis of agonists of the Cannabinoid Receptor 2 using an Image-Based Assay - Set 3. [Related pubchem assays (depositor defined):AID2013, AID2026]; type: functional
[2] = biological target: T2, G-protein coupled receptor 35 (Homo sapiens, UniProt Q9HC97); assay: SAR analysis of Antagonists of the GPR35 Receptor using an Image-Based Assay - Set 6. [Related pubchem assays (depositor defined):AID2013, AID2026]; type: functional
T2 sequence (Q9HC97 whole entry): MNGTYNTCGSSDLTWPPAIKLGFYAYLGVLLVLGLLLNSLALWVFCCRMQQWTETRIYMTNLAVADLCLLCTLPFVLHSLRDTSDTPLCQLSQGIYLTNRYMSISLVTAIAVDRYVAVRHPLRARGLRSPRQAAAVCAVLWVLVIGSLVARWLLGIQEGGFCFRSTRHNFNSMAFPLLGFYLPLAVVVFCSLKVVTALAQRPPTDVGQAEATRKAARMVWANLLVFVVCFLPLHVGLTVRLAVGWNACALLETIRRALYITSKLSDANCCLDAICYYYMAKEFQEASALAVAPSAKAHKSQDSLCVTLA

[3] = biological target: T2, G-protein coupled receptor 35; assay: SAR analysis of Agonists of the GPR35 Receptor using an Image-Based Assay - Set 4. [Related pubchem assays (depositor defined):AID2013, AID2026]; type: functional
Cannabinoid receptor 2 [4] = biological target: T1, Cannabinoid receptor 2; assay: SAR analysis of antagonists of the Cannabinoid Receptor 2 using an Image-Based Assay - Set 3. [Related pubchem assays (depositor defined):AID2013, AID2026]; type: functional
Cannabinoid receptor 1 [5] = biological target: T3, Cannabinoid receptor 1 (Homo sapiens, UniProt P21554); assay: SAR analysis of antagonists of the Cannabinoid Receptor 1 using an Image-Based Assay - Set 4. [Related pubchem assays (depositor defined):AID2013, AID2026]; type: functional
T3 sequence (P21554 whole entry): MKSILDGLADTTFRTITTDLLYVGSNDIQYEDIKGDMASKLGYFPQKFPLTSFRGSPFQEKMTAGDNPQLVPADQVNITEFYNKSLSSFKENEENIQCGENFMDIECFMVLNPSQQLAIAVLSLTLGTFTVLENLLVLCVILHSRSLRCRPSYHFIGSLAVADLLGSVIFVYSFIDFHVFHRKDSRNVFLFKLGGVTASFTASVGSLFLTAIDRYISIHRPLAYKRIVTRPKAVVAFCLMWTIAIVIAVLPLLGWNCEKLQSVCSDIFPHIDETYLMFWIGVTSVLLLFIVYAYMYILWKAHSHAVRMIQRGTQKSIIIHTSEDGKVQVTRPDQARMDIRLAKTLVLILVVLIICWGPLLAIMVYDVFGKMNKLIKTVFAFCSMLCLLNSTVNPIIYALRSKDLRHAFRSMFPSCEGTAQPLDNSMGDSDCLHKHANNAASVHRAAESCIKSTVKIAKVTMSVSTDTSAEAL

[6] = biological target: T4, G-protein coupled receptor 55 (Homo sapiens, UniProt Q9Y2T6); assay: SAR Analysis of Selective Antagonists of GPR55 using an Image-Based Assay - Set 4. [Related pubchem assays (depositor defined):AID2013, AID2026]; type: functional
T4 sequence (Q9Y2T6 whole entry): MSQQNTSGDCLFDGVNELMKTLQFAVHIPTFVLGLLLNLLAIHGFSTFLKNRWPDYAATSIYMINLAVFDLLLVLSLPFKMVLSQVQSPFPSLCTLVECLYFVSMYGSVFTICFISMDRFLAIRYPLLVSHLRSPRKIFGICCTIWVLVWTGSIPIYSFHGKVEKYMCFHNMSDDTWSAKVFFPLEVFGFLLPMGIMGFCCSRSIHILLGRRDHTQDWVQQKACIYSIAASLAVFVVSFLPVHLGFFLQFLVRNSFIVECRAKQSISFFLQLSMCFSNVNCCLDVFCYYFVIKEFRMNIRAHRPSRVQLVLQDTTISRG

Cannabinoid receptor 1 [7] = biological target: T3, Cannabinoid receptor 1; assay: SAR analysis of agonists of the Cannabinoid Receptor 1 using an Image-Based Assay - Set 4. [Related pubchem assays (depositor defined):AID2013, AID2026]; type: functional
[8] = biological target: T4, G-protein coupled receptor 55; assay: GPR55 antagonists blocking LPI-driven arrestin recruitment, primary screen, imaging, U2OS, beta-arrestin-GFP, LPI agonist (AID 2013); type: functional;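 further: antagonist potency measured as reduced agonist-driven arrestin aggregation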
Cannabinoid receptor 1 [9] = biological target: T3, Cannabinoid receptor 1; assay: SAR analysis of agonists of the Cannabinoid Receptor 1 using an Image-Based Assay - Set 2. [Related pubchem assays (depositor defined):AID2013, AID2026]; type: functional
[10] = biological target: T2, G-protein coupled receptor 35; assay: SAR analysis of Antagonists of the GPR35 Receptor using an Image-Based Assay - Set 3. [Related pubchem assays (depositor defined):AID2013, AID2026]; type: functional
Cannabinoid receptor 2 [11] = biological target: T1, Cannabinoid receptor 2; assay: SAR analysis of antagonists of the Cannabinoid Receptor 2 using an Image-Based Assay. [Related pubchem assays (depositor defined):AID2013, AID2026]; type: functional
[12] = growth suppression of beta-catenin-knockout colon cells, dose response, cell-based, HCT116, human colon tumor (AID 1045); type: functional;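 further: HCT116 colon tumor cells with beta catenin knocked out; cells exposed to compound for 60 hours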
Cannabinoid receptor 2 [13] = biological target: T1, Cannabinoid receptor 2; assay: SAR analysis of agonists of the Cannabinoid Receptor 2 using an Image-Based Assay. [Related pubchem assays (depositor defined):AID2013, AID2026]; type: functional
[14] = biological target: T2, G-protein coupled receptor 35; assay: SAR analysis of Agonists of the GPR35 Receptor using an Image-Based Assay - Set 2. [Related pubchem assays (depositor defined):AID2013, AID2026]; type: functional
Cannabinoid receptor 1 [15] = biological target: T3, Cannabinoid receptor 1; assay: SAR analysis of antagonists of the Cannabinoid Receptor 1 using an Image-Based Assay - Set 2. [Related pubchem assays (depositor defined):AID2013, AID2026]; type: functional
[16] = cytotoxicity toward NIH3T3 fibroblasts, dose response, counter-screen, cell-based, ATP luminescence, mouse fibroblasts (AID 2010); type: functional;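 further: cells exposed to compound for about 90 hours before reading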
Cytochrome P450 2C9 = Cytochrome P450 2C9 (Homo sapiens, UniProt P11712)
Cytochrome P450 2C9, sequence (P11712 whole entry): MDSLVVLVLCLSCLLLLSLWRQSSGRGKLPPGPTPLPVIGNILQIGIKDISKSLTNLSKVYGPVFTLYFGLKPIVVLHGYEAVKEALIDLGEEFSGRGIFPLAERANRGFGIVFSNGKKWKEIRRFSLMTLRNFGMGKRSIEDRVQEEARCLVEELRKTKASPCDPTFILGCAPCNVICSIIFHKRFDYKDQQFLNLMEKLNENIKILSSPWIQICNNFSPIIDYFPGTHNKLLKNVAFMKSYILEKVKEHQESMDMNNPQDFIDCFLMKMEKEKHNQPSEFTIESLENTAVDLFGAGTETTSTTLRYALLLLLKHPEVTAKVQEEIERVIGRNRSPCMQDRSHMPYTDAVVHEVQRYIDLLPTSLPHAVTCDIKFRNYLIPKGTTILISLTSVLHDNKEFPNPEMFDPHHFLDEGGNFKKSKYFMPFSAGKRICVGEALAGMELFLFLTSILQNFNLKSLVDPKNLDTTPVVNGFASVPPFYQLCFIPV

[17] = biological target: T4, G-protein coupled receptor 55; assay: GPR55 antagonist potency of analogs, SAR follow-up, imaging, U2OS, beta-arrestin-GFP, LPI agonist, set 2 (AID 2820); type: functional
[18] = growth suppression of PTEN-null colon cells, dose response, cell-based, HCT116 PTEN knockout (AID 1047); type: functional;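 further: HCT116 colon tumor cells with PTEN knocked out; cells exposed to compound for 60 hours before readout; potency for loss of cell viability measured by luminescence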
[19] = A Cell Based Secondary Assay To Explore Cytotoxicity of Compounds that Sensitize Mycobacterium Tuberculosis to Beta-Lactam Antibiotics.; type: functional
[20] = inhibitors of intracellular T. cruzi replication, confirmation, NIH3T3 host cells, beta-gal luminescence (AID 2044); type: functional, cell-based;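 further: intracellular parasites grown in NIH/3T3 mouse fibroblasts as host cells; luminescent beta-galactosidase reporter signal from transgenic T. cruzi replicating inside host cells; inhibitors lower the luminescence signal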
[21] = biological target: T5, E3 ubiquitin-protein ligase XIAP (Homo sapiens, UniProt P98170); assay: Counter Screen using XIAP-Bir3 for Chemical Antagonists of Bir1/2 domains of IAP-family anti-apoptotic proteins. [Related pubchem assays (depositor defined):AID1018, AID1449, AID1514, AID1638, AID1749, AID1750, AID488957, AID488963]
T5 sequence (P98170 whole entry): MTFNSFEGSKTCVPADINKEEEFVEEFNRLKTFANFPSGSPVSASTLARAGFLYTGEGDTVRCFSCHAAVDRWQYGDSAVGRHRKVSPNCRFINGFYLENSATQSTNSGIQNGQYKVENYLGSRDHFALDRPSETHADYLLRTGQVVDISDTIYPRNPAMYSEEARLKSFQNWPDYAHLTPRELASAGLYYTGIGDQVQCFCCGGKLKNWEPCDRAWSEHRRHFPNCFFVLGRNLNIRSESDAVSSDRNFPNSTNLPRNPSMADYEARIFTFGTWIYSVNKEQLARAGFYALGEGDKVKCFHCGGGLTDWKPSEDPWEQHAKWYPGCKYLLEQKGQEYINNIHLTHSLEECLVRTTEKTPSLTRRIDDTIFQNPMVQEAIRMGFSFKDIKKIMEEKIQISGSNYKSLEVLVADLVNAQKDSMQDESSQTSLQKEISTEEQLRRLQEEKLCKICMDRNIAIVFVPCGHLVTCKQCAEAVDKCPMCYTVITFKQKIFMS

[22] = biological target: T5, E3 ubiquitin-protein ligase XIAP; assay: XIAP antagonists, biochemical, IAP family, fluorescence polarization (AID 1018); type: functional
[23] = biological target: T6, Ubiquitin-conjugating enzyme E2 N (Homo sapiens, UniProt P61088); type: functional
T6 sequence (P61088 whole entry): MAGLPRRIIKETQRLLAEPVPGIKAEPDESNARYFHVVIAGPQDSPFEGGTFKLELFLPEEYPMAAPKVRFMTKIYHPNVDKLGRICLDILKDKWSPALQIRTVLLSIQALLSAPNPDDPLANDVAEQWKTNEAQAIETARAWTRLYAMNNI

Bcl-2-related protein A1 = biological target: T7, Bcl-2-related protein A1 (Mus musculus, UniProt Q07440); type: functional;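 further: confirmatory dose–response counterscreen on Bfl-1, used to check hits from a UBC13 polyubiquitin inhibitor campaign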
T7 sequence (Q07440 whole entry): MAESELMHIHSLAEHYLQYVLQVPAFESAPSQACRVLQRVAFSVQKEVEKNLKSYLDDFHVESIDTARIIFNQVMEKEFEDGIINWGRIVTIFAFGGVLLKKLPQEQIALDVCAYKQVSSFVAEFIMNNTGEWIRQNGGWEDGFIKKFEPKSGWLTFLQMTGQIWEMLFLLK

[24] = biological target: T6, Ubiquitin-conjugating enzyme E2 N; type: functional; remark: listed apart in the source
[25] = Luminescence Cell-Based Dose Retest to Confirm Inhibitors of Cancer Stem Cells. [Related pubchem assays (depositor defined):AID2717, AID2721]; type: functional; settings: Homo sapiens
[26] = mammalian cell cytotoxicity, dose response, cytotoxicity control, plate reader, cherry-pick samples (AID 504397); type: functional, cell-based
[27] = biological target: T8, Heat shock factor protein 1 (Mus musculus, UniProt P38532); assay: inhibition of MG132-induced HSE-luciferase signal, confirmation, cell-based, NIH3T3, luminescence, dose retest (AID 2382); type: functional;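 further: NIH3T3 fibroblasts with HSF1-driven luciferase reporter stressed by proteasome inhibitor MG132; luminescence from HSF1-driven luciferase expression after 8 hours of MG132 stress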
T8 sequence (P38532 whole entry): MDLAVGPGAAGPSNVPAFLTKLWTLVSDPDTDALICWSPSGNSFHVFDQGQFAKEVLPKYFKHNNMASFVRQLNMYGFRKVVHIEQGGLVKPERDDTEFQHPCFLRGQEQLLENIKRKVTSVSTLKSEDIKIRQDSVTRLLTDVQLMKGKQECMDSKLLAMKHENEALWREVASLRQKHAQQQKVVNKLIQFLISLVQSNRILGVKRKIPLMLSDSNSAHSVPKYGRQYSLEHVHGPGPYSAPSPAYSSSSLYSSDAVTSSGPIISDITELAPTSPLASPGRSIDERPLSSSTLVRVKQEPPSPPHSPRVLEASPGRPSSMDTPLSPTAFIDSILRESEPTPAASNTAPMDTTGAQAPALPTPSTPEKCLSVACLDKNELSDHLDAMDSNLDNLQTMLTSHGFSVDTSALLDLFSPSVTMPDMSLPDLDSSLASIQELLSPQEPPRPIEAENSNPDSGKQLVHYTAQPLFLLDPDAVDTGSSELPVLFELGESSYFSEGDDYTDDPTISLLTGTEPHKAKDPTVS

T1 sequence (P34972 whole entry): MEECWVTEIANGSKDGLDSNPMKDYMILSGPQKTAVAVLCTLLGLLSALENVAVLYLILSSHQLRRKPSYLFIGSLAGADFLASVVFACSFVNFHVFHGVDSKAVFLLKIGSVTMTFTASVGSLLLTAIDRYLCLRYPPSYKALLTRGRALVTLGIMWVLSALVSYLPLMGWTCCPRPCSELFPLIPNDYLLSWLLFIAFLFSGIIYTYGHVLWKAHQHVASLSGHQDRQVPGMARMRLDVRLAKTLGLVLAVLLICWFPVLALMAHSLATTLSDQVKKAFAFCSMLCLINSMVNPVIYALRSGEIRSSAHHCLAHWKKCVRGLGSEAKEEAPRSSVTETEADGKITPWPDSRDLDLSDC

With `O=C(N1CCC(n2nc(-c3ccccc3)oc2=O)CC1)C1(c2ccccc2)CCCC1` the EC50 (Cannabinoid receptor 2 [1]) was > 32 µM (inactive), the IC50 [2] was > 32 µM (inactive) and the EC50 [3] was > 32 µM (inactive). The IC50 (Cannabinoid receptor 2 [4]) was 14 µM (inactive), the IC50 (Cannabinoid receptor 1 [5]) was 1.98 µM (active) and the IC50 [6] was 2.7 µM (active). The EC50 (Cannabinoid receptor 1 [7]) was > 32 µM (inactive).
In the case of `CC(C)(C)NS(=O)(=O)c1ccc(NC(=O)C(Sc2ccccc2)c2ccccc2)cc1` (centres undefined), the IC50 [8] was 0.678 µM (active), the EC50 (Cannabinoid receptor 1 [9]) was > 32 µM (inactive) and the IC50 [10] was > 32 µM (inactive). For the same compound, the IC50 (Cannabinoid receptor 2 [11]) was > 32 µM (inactive), the EC50 [12] was 14.7 µM (active) and the EC50 (Cannabinoid receptor 2 [13]) was > 32 µM (inactive). For the same compound, the EC50 [14] was > 32 µM (inactive), the IC50 (Cannabinoid receptor 1 [15]) was 2.71 µM (active) and the EC50 [16] was > 60 µM (not active). The AC50 (Cytochrome P450 2C9) was 2 µM (inconclusive), the IC50 [17] was 0.978 µM (active) and the EC50 [18] was 14.5 µM (active). The CC50 [19] was 27.1 µM (active) and the EC50 [20] was 2.31 µM (active).
In the case of `CC(C)C(NC(=O)CN1C(=O)c2ccccc2S1(=O)=O)C(C)C`, the IC50 [21] was > 100 µM (inactive) and the IC50 [22] was > 100 µM (not active).
For `C/C(=N\NC(=O)CSCc1ccc([N+](=O)[O-])cc1)c1ccccc1`, the IC50 [23] was 6.86 µM (active), the IC50 (Bcl-2-related protein A1) was > 20 µM (inactive) and the IC50 [24] was 4.9 µM (active).
For `c1ccc(CNc2nc(N3CCN(Cc4ccccc4)CC3)nc3ccccc23)cc1`, the AC50 [25] was 3.43 µM (active), the AC50 [26] was 66.2 µM (active) and the EC50 [27] was > 195 µM (not active).
